According to patent publication US9617213B2, “Synthetic analogues of xanthohumol” (UNIVERSITA' DI PISA, priority 2013, dated 2017):
Read-outs that look alike come from different tables or passages of the source.

How the values were obtained:
[1] = tested on: prostate cancer cell lines; details: 40 μM; cited from earlier work
endothelial cells [2] = details: cited from earlier work
endothelial cells [3] = details: cited from earlier work; remark: listed apart in the source
fibrosarcoma cells [4] = details: 10 μM; cited from earlier work
endothelial cells [5] = details: cited from earlier work; remark: listed apart in the source
[6] = tested on: hepatocarcinoma cell lines; details: 25 μM; cited from earlier work
MMP-2 = biological target: T1, MMP-2 (Homo sapiens, UniProt P08253); details: 10 μM; cited from earlier work
T1 sequence (P08253 110-660): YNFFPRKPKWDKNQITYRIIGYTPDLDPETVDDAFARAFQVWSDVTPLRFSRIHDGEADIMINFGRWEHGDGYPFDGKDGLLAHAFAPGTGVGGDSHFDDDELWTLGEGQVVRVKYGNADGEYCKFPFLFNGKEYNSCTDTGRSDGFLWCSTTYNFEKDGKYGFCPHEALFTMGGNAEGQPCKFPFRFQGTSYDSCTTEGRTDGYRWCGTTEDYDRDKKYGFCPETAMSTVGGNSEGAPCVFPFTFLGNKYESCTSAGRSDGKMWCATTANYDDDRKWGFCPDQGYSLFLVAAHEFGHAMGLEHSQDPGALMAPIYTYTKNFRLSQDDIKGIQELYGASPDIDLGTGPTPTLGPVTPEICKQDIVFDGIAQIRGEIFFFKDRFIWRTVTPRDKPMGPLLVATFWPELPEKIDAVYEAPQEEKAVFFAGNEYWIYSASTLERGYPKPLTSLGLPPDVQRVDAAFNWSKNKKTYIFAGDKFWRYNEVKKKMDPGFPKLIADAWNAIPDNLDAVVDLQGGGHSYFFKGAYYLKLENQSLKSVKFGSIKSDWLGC

MMP-9 = MMP-9 (Homo sapiens, UniProt P14780); details: 10 μM; cited from earlier work
Chain of MMP-9 (P14780 94-707, species assumed): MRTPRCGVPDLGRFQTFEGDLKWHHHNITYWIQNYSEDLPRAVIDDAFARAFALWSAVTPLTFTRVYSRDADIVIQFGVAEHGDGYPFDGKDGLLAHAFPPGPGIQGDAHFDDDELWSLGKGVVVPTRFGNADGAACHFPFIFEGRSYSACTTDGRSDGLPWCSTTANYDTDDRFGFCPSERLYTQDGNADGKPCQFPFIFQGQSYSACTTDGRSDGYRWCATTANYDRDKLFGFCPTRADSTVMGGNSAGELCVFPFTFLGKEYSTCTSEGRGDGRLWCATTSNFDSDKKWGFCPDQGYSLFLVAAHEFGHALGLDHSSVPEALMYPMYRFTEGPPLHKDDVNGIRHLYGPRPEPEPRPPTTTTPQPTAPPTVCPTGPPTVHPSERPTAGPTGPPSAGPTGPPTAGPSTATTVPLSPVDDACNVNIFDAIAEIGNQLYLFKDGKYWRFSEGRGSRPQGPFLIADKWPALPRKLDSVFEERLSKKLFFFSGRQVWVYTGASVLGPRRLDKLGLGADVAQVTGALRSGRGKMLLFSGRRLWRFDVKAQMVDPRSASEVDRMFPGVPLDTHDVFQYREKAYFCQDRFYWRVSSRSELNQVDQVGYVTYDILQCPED

HUVEC cells [7] = test: Migration (chemotaxis) assay, Boyden chambers; assay type: cell-based, human; details: for reduction of endothelial cell migration: 10 μM, HUVEC pre-treated for 24 hours, values standardised on control, FIG. 7; for inhibition of migration: 24 hours' pre-treatment, 10 μM and 20 μM, *P<0.05, FIG. 2
Description: The chemotaxis assay was conducted with Boyden chambers [Albini A, Iwamoto Y, Kleinman H K, Martin G R, Aaronson S A, Kozlowski J M, McEwan R N. A rapid in vitro assay for quantitating the invasive potential of tumor cells. Cancer Res. 1987 Jun. 15; 47(12):3239-45; Albini A, Benelli R. The chemoinvasion assay: a method to assess tumor and endothelial cell invasion and its modulation. Nat Protoc. 2007; 2(3):504-11]. The HUVEC cells (5×10^4) were pre-treated for 24 hours with the inhibitors, resuspended in serum-free medium, and plated in the upper compartment of the Boyden chamber. The complete medium was added in the lower compartment of the chamber, and used as chemoattractant. The two chambers were separated by polycarbonate filters ([…]) coated with collagen (50 μg/mL). After 6 hours' incubation at 37° C., the filters were recovered, the cells present on the upper surface of the filter were mechanically removed, and those on the lower surface were fixed in absolute ethanol and stained with DAPI. The cells were then counted in eight consecutive fields on each filter by fluorescence microscopy.

HUVEC cells [8] = test: Invasion (chemoinvasion) assay, Boyden chambers, matrigel; assay type: cell-based, human; details: for reduction of endothelial cell invasion: 10 μM, HUVEC pre-treated for 24 hours, values standardised on control, FIG. 6; for invasion in the presence of serum (FBS): 24 hours' pre-treatment, even at 10 μM, *P<0.05, FIG. 3
Description: The chemoinvasion assay was conducted with Boyden chambers [Albini A, Iwamoto Y, Kleinman H K, Martin G R, Aaronson S A, Kozlowski J M, McEwan R N. A rapid in vitro assay for quantitating the invasive potential of tumor cells. Cancer Res. 1987 Jun. 15; 47(12):3239-45; Albini A, Benelli R. The chemoinvasion assay: a method to assess tumor and endothelial cell invasion and its modulation. Nat Protoc. 2007; 2(3):504-11]. The HUVEC cells (5×10^4) were pre-treated for 24 hours with the inhibitors, resuspended in serum-free medium, and plated in the upper compartment of the chamber. The complete medium was added in the lower compartment of the chamber, and used as chemoattractant. The 12 m polycarbonate filters were coated with matrigel (1 mg/mL). After 18 hours' incubation, the cells in the upper compartment of the chamber were mechanically removed, while those adhering to the lower surface of the filter were fixed in absolute ethanol and stained with DAPI. The cells were counted double-blind in eight consecutive fields by fluorescence microscopy.

hepatocytes = details: high concentrations (exceeding 100 μM); cited from earlier work
fibrosarcoma cells [9] = details: cited from earlier work
[10] = Apoptosis assay (Annexin V / 7-AAD cytofluorimetry); assay type: cell-based, human; details: human, HUVEC cells, FIG. 5, read-out: percentage of viability
Description: (§1) The HUVEC cells (1×10^5) were plated in six-well plates and left to adhere for 18 hours. The next day, the cells were pre-treated with inhibitors LR6 and LR7 (10 μM) in the presence of complete medium. After 24 hours, the cells were detached, washed with PBS and transferred to tubes for cytofluorimetric analysis. The cells were pelletted and resuspended in Annexin V-binding buffer (0.01M HEPES (4-(2-hydroxyethyl)-1-piperazineethanesulphonic acid) (pH 7.4); 0.14 M NaCl; 2.5 mM CaCl2. Fluorescein isothiocyanate Annexin V and 7-amino-actinomycin D were added to the tubes, and the cells were incubated for 15 minutes at room temperature in the dark. The cells were then washed in PBS, the supernatant was removed and the cells resuspended in […] of binding buffer. The samples were analysed on a FACSCanto cytofluorimeter (BD Biosciences), and analysed with FACSDiva Software 6.1.2.

HUVEC cells [11] = test: as above; assay type: cell-based, human; details: 10 μM, 24 hours, FIG. 5
Description: as §1

HUVEC cells [12] = test: Morphogenesis on matrigel (capillary-like structures); assay type: cell-based, human; details: 24 hours' pre-treatment, FIG. 4
Description: A 24-well plate was coated with 300 μl/well of liquid matrigel (10 mg/mL) at 4° C., using cold pipettes and avoiding bubbles. The plate was then incubated for one hour at 37° C., until the matrigel polymerised. The HUVEC cells, pre-treated with the different inhibitors, were resuspended in 1 mL of complete medium and then plated in the different wells. The serum-free medium was used as negative control (CTRL−). After 6 hours' incubation, the organisation of the cells in capillary-like structures was examined with an inverted microscope equipped with a camera for the acquisition of images and a digital analysis system.

HUVEC cells [13] = test: MTT colorimetric viability assay; assay type: cell-based, human; details: for inhibition of cell growth: 20 μM, after 24 hours' treatment, FIG. 1
Description: The viability of the HUVEC cells was evaluated with the MTT colorimetric assay (3-(4,5-dimethylthiazol-2-yl)-2,5-diphenyltetrazolium bromide). The cells (1000/well) were plated in complete medium in 96-well plates, and after complete adherence the medium was replaced with a new medium with or without the various inhibitors at different concentrations. The plates were processed at different incubation times (24, 48, 72 and 96 hours), and the absorbance was measured at 570 nm.

COc1cc(O)c(CC=C(C)C)c(O)c1C(=O)/C=C/c1ccc(O)cc1 [XN, Xanthohumol]
growth of prostate cancer cell lines [1]: inhibitory effect
toxicity (endothelial cells [2]; 200 μM): no toxicity was observed
concentration interval in which effects on morphogenesis are evident (endothelial cells [2]): 5 to 10 µM
chemotaxis of the endothelial cells and invasion in vitro (endothelial cells [3]; 5 μM): inhibits chemotaxis
chemotaxis of the endothelial cells and invasion in vitro (endothelial cells [3]; 10 μM): complete inhibition
invasion by fibrosarcoma cells (fibrosarcoma cells [4]): inhibits invasion
cytotoxic activity against activated endothelial cells (endothelial cells [5]; 10 μM): potent cytotoxic activity
concentration at which cell death is observed (endothelial cells [5]): exceeding 25 μM
effect on endothelial cells at lower concentrations (endothelial cells [5]; concentrations lower than 10 μM, even after long exposure times): does not exhibit any significant effect
apoptosis [6]: induces apoptosis
activity of MMP-2 (MMP-2): strongly inhibited
activity of MMP-9 (MMP-9): inhibits
reduction of endothelial cell migration (HUVEC cells [7]): about 50%
reduction of endothelial cell invasion (HUVEC cells [8]): about 60%
viability of the hepatocytes (hepatocytes): no effect on the viability

COc1cc2c(c(O)c1C(=O)/C=C/c1ccc(O)cc1)C=CC(C)(C)O2 [XNC, xanthohumol C]
cytotoxic effect (fibrosarcoma cells [9]): loss of cytotoxic activity

COc1cc(O)c(CC=C(C)C)c(O)c1C(=O)/C=C/c1ccc(F)c(F)c1 [LR16, (E)-3-(3,4-difluorophenyl)-1-[2,4-dihydroxy-6-methoxy-3-(3-methyl-but-2-enyl)-phenyl]-prop-2-en-1-one]
reduction of endothelial cell invasion (HUVEC cells [8]): about 80%

COCOc1cc(OC)c(C(=O)/C=C/c2ccc(F)cc2)c(O)c1CC=C(C)C [LR7, (E)-3-(4-fluorophenyl)-1-[2-hydroxy-6-methoxy-4-(methoxymethyloxy)-3-(3-methyl-but-2-enyl]-phenyl)prop-2-en-1-one]
viability at 24 h, 10 µM [10]: ~90%
apoptosis (HUVEC cells [11]): absence of apoptosis
FBS-dependent morphogenesis (HUVEC cells [12]): interferes with FBS-dependent morphogenesis
inhibition of cell growth (HUVEC cells [13]): Significant inhibition of cell growth
cytostatic activity (HUVEC cells [13]; 10 and 20 μM, after 48 hours' incubation): exhibited cytostatic activity
inhibition of migration (HUVEC cells [7]): Significant inhibition of migration
invasion in the presence of serum (FBS) (HUVEC cells [8]): significantly reduces invasion

COc1cc(O)c(CC=C(C)C)c(O)c1C(=O)/C=C/c1ccc(F)cc1 [LR6, (E)-1-[2,4-dihydroxy-6-methoxy-3-(3-methyl-but-2-enyl)prenyl]-3-(4-fluorophenyl)-prop-2-en-1-one]
viability at 24 h, 10 µM [10]: ~90%
apoptosis (HUVEC cells [11]): absence of apoptosis
FBS-dependent morphogenesis (HUVEC cells [12]): interferes with FBS-dependent morphogenesis
cell proliferation (HUVEC cells [13]; 10 μM, after 72 and 96 hours' treatment): able to reduce cell proliferation
inhibition of cell growth (HUVEC cells [13]): Significant inhibition of cell growth
reduction of endothelial cell migration (HUVEC cells [7]): ~75%
inhibition of migration (HUVEC cells [7]): Significant inhibition of migration
invasion in the presence of serum (FBS) (HUVEC cells [8]): significantly reduces invasion

COCOc1cc(OC)c(C(=O)/C=C/c2ccc(F)cc2F)c(OCOC)c1CC=C(C)C [LR17, (E)-3-(2,4-difluoro-phenyl)-1-[6-methoxy-2,4-dimethoxymethyloxy-3-(3-methyl-but-2-enyl)phenyl]-prop-2-en-1-one]
reduction of endothelial cell invasion (HUVEC cells [8]): ~75%

COc1cc(O)c(CC=C(C)C)c(O)c1C(=O)/C=C/c1ccc(F)cc1F [LR19, (E)-3-(2,4-difluorophenyl)-1-[2,4-dihydroxy-6-methoxy-3-(3-methyl-but-2-enyl)-phenyl]-prop-2-en-1-one]
reduction of endothelial cell migration (HUVEC cells [7]): about 80%

O-methylxanthohumol ether SEM [XN-SEM]
cytotoxic effect (fibrosarcoma cells [9]): no cytotoxic effect
